The test system of series [1] is B-cell neoplastic cell line RPMI 8226. The series is described as follows: Inhibition of proliferation of RPMI cells. The format is cell-based. The note with it: RPMI cell viability, FIG. 1. The text has this:
The next set of experiments was designed to assess compounds that have low levels of brain penetration for the ability of the test compounds to inhibit cellular proliferation. An exemplary in vitro assay is to screen for the ability of the test compounds to inhibit proliferation of the B-cell neoplastic cell line RPMI 8226 (a plasmacytoma derived from a multiple myeloma patient (Matsuoka, et al., 1967, Proc. Soc. Exp. Biol. Med. 125: 1246-1250). However other cell line can be used such as, U266 (established from an IgE-secreting myeloma patient (Nilsson, et al., 1970, Clin. Exp. Immunol., 7: 477-489) and ARH77 (an EBV transformed plasma cell leukemia (Burk, et al., 1978, Cancer Res. 38: 2508-2513).
FIG. 1 is a graph depicting the effects on the test compounds on RPMI cell viability.

The subject of series [2] is rat model of collagen-induced arthritis. As to the kind of experiment: Rat model of collagen-induced arthritis, ankle diameter. Format: in vivo. As to conditions: for reduction of ankle diameter: 10 mg/kg ip daily, about 3 days, caliper measurement; for efficacy in reducing ankle diameter compared with Enbrel: rheumatoid arthritis rat model, versus Enbrel. As for the experimental part:
The next set of experiments was designed to test the ability of the compounds of the invention on a rat model of collagen-induced arthritis. Briefly, Female Lewis rats were immunized with bovine type 2 collagen 2 mg/mL in 0.01N HAc mixed 1:1 w/ FIA injected id 0.1 mL at each of three sites on back (Rosloniec, E. F., A. H. Kang, L. K. Myers, M. A. Cremer. 1996. Collagen-induced arthritis. R. Coico, and E. Shevach, eds. Current Protocols in Immunology 15.5.1. Weily & Sons, New York.).
FIG. 2 depicts a schematic of the collagen-induced arthritis protocol. Briefly, a test compound of the invention is delivered ip at 10 mg/kg daily, for about 3 days.
FIG. 4 depicts ICI 1260, 1259, 848, 849, 761, 715, and 847 with respect to Enbrel. Additional testing for the effectiveness of compounds ICI 1260, 1259, 848, 849, 761, 715, and 847 at various concentrations (10 mg/kg, 2 mg/kg, 0.4 mg/kg) were conducted, as illustrated in FIGS. 5A-5G. A dose response curve was constructed to illustrate the efficacy of the seven compounds (FIG. 6).

The subject of series [3] is MDR1-MDCK. The series is described as follows: MDR1-MDCK Permeability (potential to cross the blood-brain barrier). The note with it: for Brain Penetration Classification: from A-B Papp and efflux ratio.
Another series deals with Female Lewis rats. The series is described as follows: Toxicity in Female Lewis rats. Format: in vivo. As to conditions: 100 mg/kg ip, in comparison with PBS control. As for the experimental part: The next set of experiments was designed to determine the toxicity of the compounds. Each compound was administered to Female Lewis rats at a dose of 100 mg/kg via ip administration.

The target in series [4] is histamine type 1 receptor (Homo sapiens, UniProt P35367). As to the kind of experiment: Binding to non-5-HT receptors: histamine type 1 receptor. The note with it: FIG. 12. The protocol:
The methods employed in this study have been adapted from the scientific literature to maximize reliability and reproducibility. Where presented, IC50 values were determined by a non-linear, least squares regression analysis using the DATA ANALYSIS TOOLBOX (MDL Information Systems, San Leandro, Calif., USA). Where inhibition constants (Ki) are presented, the Ki values were calculated using the equation of Cheng and Prusoff (Cheng, Y., Prusoff, W. H., Biochem. Pharmacol. 22:3099-3108, 1973) or equivalent using the observed IC50 of the tested compound, the concentration of ligand employed in the assay, and historical values for the KD of the ligand.
The next set of experiments was designed to assess the selective binding of the test compounds to non-5-HT receptors. The compounds tested are as follows: ICI-735, 848, 849, 1259, and 1260. […] It was also observed that the compounds that bound well to 5-HT4 receptor also bound well to histamine type 1 receptor.

Series [5] concerns MDR1-MDCK.

Entries after “also recorded” stand apart in the source; their conditions may differ. Read-outs that look alike come from different tables or passages of the source.

Chain of histamine type 1 receptor (P35367 whole entry): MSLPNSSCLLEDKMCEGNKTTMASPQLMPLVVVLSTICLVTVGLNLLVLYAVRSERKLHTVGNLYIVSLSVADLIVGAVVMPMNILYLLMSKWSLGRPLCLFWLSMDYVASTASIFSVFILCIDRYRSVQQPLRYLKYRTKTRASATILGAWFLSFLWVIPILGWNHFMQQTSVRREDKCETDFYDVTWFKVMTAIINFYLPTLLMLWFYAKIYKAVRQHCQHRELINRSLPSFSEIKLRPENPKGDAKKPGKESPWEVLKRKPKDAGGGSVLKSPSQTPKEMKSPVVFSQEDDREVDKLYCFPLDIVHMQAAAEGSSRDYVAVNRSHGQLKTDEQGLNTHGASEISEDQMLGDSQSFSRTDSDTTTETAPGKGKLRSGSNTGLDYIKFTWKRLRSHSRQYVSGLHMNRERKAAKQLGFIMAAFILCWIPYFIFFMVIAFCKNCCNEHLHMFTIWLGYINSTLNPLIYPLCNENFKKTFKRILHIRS

As to `NCCCN1CCC(CCCN2c3ccccc3Sc3ccc(C(F)(F)F)cc32)CC1` [ICI-00847], the “ability to inhibit proliferation of RPMI cells” value (from here on “ability to inhibit proliferation”) in series [1] (listed as ICI-847) is listed as “able to inhibit the proliferation of RPMI cells”. Also, in series [2] (listed as ICI-847), the “reduction of ankle diameter” value was “decrease the ankle diameter to a desirable level; also recorded: most desirable reduction of ankle diameter”. For the same molecule, the “efficacy in reducing ankle diameter compared with Enbrel” value (from here on “efficacy in reducing ankle diameter”) in series [2] is “more effective in reducing the ankle diameter than Enbrel”. The “Brain Penetration Classification” value with MDR1-MDCK [3] was “Low (3) A-B Papp > 3.0 and Efflux Ratio > 10: Low)”.

As for `CN(C)S(=O)(=O)c1ccc2c(c1)N(CCCN1CCN(CCN)CC1)c1ccccc1S2` [ICI-00715], in series [1], the “ability to inhibit proliferation” value is given as “able to inhibit the proliferation of RPMI cells”. Moreover, in series [2], the “reduction of ankle diameter” value is listed as “decrease the ankle diameter to a desirable level” and the “efficacy in reducing ankle diameter” value is listed as “more effective in reducing the ankle diameter than Enbrel”. Further, the toxicity entry in the series with Female Lewis rats is given as “not toxic”.

As for `FC(F)(F)c1ccc2c(c1)N(CCCC1CCNCC1)c1ccccc1S2` [ICI-00824], the toxicity result in the series on Female Lewis rats is listed as “not toxic”.

As to `OCCN1CCN(CCCN2c3ccccc3Sc3ccc(C(F)(F)F)cc32)CC1` [ICI-01175, fluphenazine, reference compound], the “Brain Penetration Classification” value in the series with MDR1-MDCK [3] was “High (1) A-B Papp > 3.0 and Efflux Ratio < 3.0: High)”.

For `CN(C)CCN1CCN(CCCN2c3ccccc3Sc3ccc(C(F)(F)F)cc32)CC1` [ICI-00738], the toxicity result with Female Lewis rats is listed as “not toxic”.

Turning to `CNCC(=O)NCCN1CCC(CCCN2c3ccccc3Sc3ccc(C(F)(F)F)cc32)CC1` [ICI-00849], the “ability to inhibit proliferation” value in series [1] is recorded as “able to inhibit the proliferation of RPMI cells”. Besides, the “reduction of ankle diameter” value in series [2] (listed as ICI-849) is “decrease the ankle diameter to a desirable level; also recorded: most desirable reduction of ankle diameter”. Moreover, the “efficacy in reducing ankle diameter” value in series [2] was “more effective in reducing the ankle diameter than Enbrel”. Moreover, the “binding to histamine type 1 receptor” value in series [4] is on record as “able to bind histamine type 1 receptor”. Further, the “Brain Penetration Classification” value in the series with MDR1-MDCK [3] was “Low (3) A-B Papp > 3.0 and Efflux Ratio > 10: Low)”.

As for `CNCC(=O)NCCCN1CCN(CCCN2c3ccccc3Sc3ccc(C(F)(F)F)cc32)CC1` [ICI-00823], the “reduction of ankle diameter” value in series [2] is “decrease the ankle diameter to a desirable level”. Also, the toxicity entry in the series with Female Lewis rats is “not toxic”.

Regarding `CN(C)CCCN1CCC(CCCN2c3ccccc3Sc3ccc(C(F)(F)F)cc32)CC1` [ICI-01505], in the series with MDR1-MDCK [3], the “Brain Penetration Classification” value was “Low (3) A-B Papp > 3.0 and Efflux Ratio > 10: Low)”.

Consider `NCC(=O)NCCCN1CCN(CCCN2c3ccccc3Sc3ccc(C(F)(F)F)cc32)CC1` [ICI-00822], for which the “Brain Penetration Classification” value in the series on MDR1-MDCK [3] was “Low (3) A-B Papp > 3.0 and Efflux Ratio > 10: Low)”.

Consider `NCCN1CCC(CCCN2c3ccccc3Sc3ccc(C(F)(F)F)cc32)CC1` [ICI-00846], for which the “Brain Penetration Classification” value in the series with MDR1-MDCK [3] is “Low (3) A-B Papp > 3.0 and Efflux Ratio > 10: Low)”.

In the case of `NCC(=O)NCCN1CCN(CCCN2c3ccccc3Sc3ccc(C(F)(F)F)cc32)CC1` [ICI-00735], the “reduction of ankle diameter” value in series [2] was “did not have a desirable reduction of ankle diameter”. Also, the “binding to histamine type 1 receptor” value in series [4] is reported as “able to bind histamine type 1 receptor”. In addition, in the series on MDR1-MDCK [5], the “% Recovery A-B” value is 47%, the “% Recovery B-A” value stood at 33%, the “Papp A-B” value stood at 2.3 nm/s and the “Papp B-A” value was found to be 286 nm/s. This molecule registered an Efflux in the series with MDR1-MDCK [5] (dog) of 124.

With `NCCCN1CCN(CCCN2c3ccccc3Sc3ccc(C(F)(F)F)cc32)CC1` [ICI-00760], in the series on MDR1-MDCK [3], the “Brain Penetration Classification” value was “Low (3) A-B Papp > 3.0 and Efflux Ratio > 10: Low)”.

Turning to `CNCC(=O)NCCN1CCN(CCCN2c3ccccc3Sc3ccc(C(F)(F)F)cc32)CC1` [ICI-00758], the toxicity result in the series with Female Lewis rats is “not toxic”. Also, the “Brain Penetration Classification” value with MDR1-MDCK [3] was “Low (3) A-B Papp > 3.0 and Efflux Ratio > 10: Low)”.

As to `FC(F)(F)c1ccc2c(c1)N(CCCCN1CCNCC1)c1ccccc1S2` [ICI-00890], in the series on MDR1-MDCK [3], the “Brain Penetration Classification” value was “Low (3) A-B Papp > 3.0 and Efflux Ratio > 10: Low)”.

Take `OCCN1CCN(CCCN2c3ccccc3Sc3ccc(C(F)(F)F)cc32)CC1` [ICI-01176]: in the series with MDR1-MDCK [3] (MDR1-MDCK, A-B direction), the “% Recovery A-B” value is 35% and the “Papp A-B” value was 7.8 nm/s. In the series with MDR1-MDCK [3] (MDR1-MDCK, B-A direction), the “% Recovery B-A” value is 55% and the “Papp B-A” value was determined as 342 nm/s. Further, the Efflux with MDR1-MDCK [3] (MDR1-MDCK, efflux ratio) is on record as 44. The “Brain Penetration Classification” value with MDR1-MDCK [3] is “Low (3) A-B Papp > 3.0 and Efflux Ratio > 10: Low)”.

Regarding `FC(F)(F)c1ccc2c(c1)N(CCCN1CCNCC1)c1ccccc1S2` [ICI-00685], in the series with MDR1-MDCK [3], the “Brain Penetration Classification” value is “Low (3) A-B Papp > 3.0 and Efflux Ratio > 10: Low)”.

Regarding `NCC(N)C(=O)NCCN1CCN(CCCN2c3ccccc3Sc3ccc(C(F)(F)F)cc32)CC1` (centres unmarked) [ICI-761], the “ability to inhibit proliferation” value in series [1] is on record as “able to inhibit the proliferation of RPMI cells”. Besides, in series [2], the “reduction of ankle diameter” value is reported as “decrease the ankle diameter to a desirable level” and the “efficacy in reducing ankle diameter” value is “more effective in reducing the ankle diameter than Enbrel”.

Consider `CC(=O)NCCN1CCC(CCCN2c3ccccc3Sc3ccc(C(F)(F)F)cc32)CC1` [ICI-00850], for which the “Brain Penetration Classification” value in the series with MDR1-MDCK [3] was “Low (3) A-B Papp > 3.0 and Efflux Ratio > 10: Low)”.

In the case of `N#Cc1ccc2c(c1)N(CCCN1CCN(CCN)CC1)c1ccccc1S2` [ICI-00894], the “Brain Penetration Classification” value in the series with MDR1-MDCK [3] was “Low (3) A-B Papp > 3.0 and Efflux Ratio > 10: Low)”.

For the origin of these results see US20100035858A1, “Novel Compositions and Methods for Binding and Inhibiting 5-HT4 Receptor” (Immune Control, Inc., priority 2008, published 2010).
